Patent publication US9770026B2, “Substituted pyrimidine compound and uses thereof” (Shenyang Sinochem Agrochemicals R&D Co., Ltd., priority 2012, dated 2017)

Experiments:
Diamond back moth = experiment: insecticidal activity against diamond back moth, airbrush spray; format: in vivo; conditions: 600 mg/L; for pest or weed control at 600 µg/mL: 72 h
Outline: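 Airbrush leaf-disc spray test: both faces of 2 cm cabbage discs received 0.5 ml of test solution at 0.7 kg/cm^2. Solutions were made in acetone:methanol (1:1) and brought to concentration with 0.1% Tween 80 in water. Ten second-instar larvae per disc, triplicates, were held at 25° C and 60˜70% R.H., with mortality recorded at 72 hrs.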

armyworm = experiment: bioactivity test against armyworm, airbrush spray; format: in vivo; conditions: 600 mg/L; for pest or weed control at 600 µg/mL: 72 h, read-out: Insecticidal activity against armyworm (%)
[1] = test system: Green peach aphids (Myzus Persicae Sulzer); experiment: bioactivity test against green peach aphid, airbrush foliar spray; format: in vivo; conditions: 600 mg/L, contrastive test; for pest or weed control at 600 µg/mL: Myzus persicae, foliar, 48 h, read-out: Insecticidal activity against peach aphid (%)
Outline: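 Aphids (15-30 per cabbage leaf disc) on moist filter paper were airbrush-sprayed at 10 psi, 0.5 mL, with compound from acetone:methanol (1:1) diluted in water with 0.1% tween 80. Held at 25±1 C, 60±5% RH; survivors counted after 48 hrs to give death rates.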

carmine spider mite = experiment: bioactivity test against carmine spider mite, airbrush spray; format: in vivo; conditions: contrastive test
Outline: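 Broadbean seedlings infested with adult mites were sprayed with compound (acetone/methanol stock diluted in 0.1% Tween 80 water) by airbrush at 0.7 kg/cm^2, 0.5 ml. Three replicates were run. Mortality was scored after 72 hrs.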

corn rust = experiment: protectant activity in vivo against corn rust; conditions: protectant activity; for control effect against corn rust (%): 400 mg/L; for pest or weed control at 6.25 µg/mL / pest or weed control at 25 µg/mL / pest or weed control at 100 µg/mL / pest or weed control at 400 µg/mL: Zea mays, 168 h; for pest or weed control at 6.25 µg/mL: read-out: control effect against corn rust (%), 6.25 mg/L; for pest or weed control at 25 µg/mL: read-out: control effect against corn rust (%), 25 mg/L; for pest or weed control at 100 µg/mL: read-out: control effect against corn rust (%), 100 mg/L; for pest or weed control at 400 µg/mL: read-out: control effect against corn rust (%), 400 mg/L
wheat powdery mildew = experiment: protectant activity in vivo against wheat powdery mildew; conditions: protectant activity; for control effect against wheat powdery mildew (%): 400 mg/L
cucumber downy mildew = experiment: protectant activity in vivo against cucumber downy mildew; conditions: protectant activity; for pest or weed control at 25 µg/mL: read-out: control effect against cucumber downy mildew (%), 25 mg/L; for pest or weed control at 50 µg/mL: read-out: control effect against cucumber downy mildew (%), 50 mg/L; for pest or weed control at 100 µg/mL: read-out: control effect against cucumber downy mildew (%), 100 mg/L

Structure (SMILES) | Insecticidal activity against diamond back moth (%) (Diamond back moth) | Insecticidal activity against armyworm (%) (armyworm) | Insecticidal activity against peach aphid (%) [1] [%] | Insecticidal activity against carmine spider mite (% ) (carmine spider mite; 600 mg/L) [%] | control effect against corn rust (%) (corn rust) | control effect against wheat powdery mildew (%) (wheat powdery mildew) | control effect against cucumber downy mildew (%) (cucumber downy mildew; 400 mg/L) | pest or weed control at 600 µg/mL (Diamond back moth) [%] | pest or weed control at 600 µg/mL (armyworm) [%] | pest or weed control at 600 µg/mL [1] [%] | pest or weed control at 6.25 µg/mL (corn rust) [%] | pest or weed control at 25 µg/mL (corn rust) [%] | pest or weed control at 100 µg/mL (corn rust) [%] | pest or weed control at 400 µg/mL (corn rust) [%] | pest or weed control at 25 µg/mL (cucumber downy mildew; Cucumis sativus, 168 h) [%] | pest or weed control at 50 µg/mL (cucumber downy mildew; Cucumis sativus, 168 h) [%] | pest or weed control at 100 µg/mL (cucumber downy mildew; Cucumis sativus, 168 h) [%] | also measured
CCc1ncnc(NC(C)c2ccc(Oc3ccccc3)nc2)c1Cl (stereo not drawn) [CK8, reference compound] | 33 | 17 | 0 | 54 | 50 | 0 | 98 | – | – | – | – | – | – | – | – | – | – | control effect against cucumber downy mildew (%) (cucumber downy mildew; 25 mg/L): 75%; control effect against cucumber downy mildew (%) (cucumber downy mildew; 50 mg/L): 80%; control effect against cucumber downy mildew (%) (cucumber downy mildew; 100 mg/L): 95%
CCc1ncnc(NC(=O)Cc2ccc(Oc3ncc(C(F)(F)F)cc3Cl)cc2)c1Cl [CK16, reference compound] | 0 | 0 | 64 | 0 | 0 | 70 | 85 | – | – | – | – | – | – | – | – | – | – | –
Cc1ncnc(NCc2ccc(Oc3ncc(C(F)(F)F)cc3Cl)cc2)c1Cl [CK23, reference compound] | – | – | – | 64 | – | 100 | 100 | 0 | 0 | 0 | 0 | 0 | 0 | 100 | 0 | 0 | 0 | pest or weed control at 6.25 µg/mL (wheat powdery mildew; Triticum aestivum, 168 h, read-out: control effect against wheat powdery mildew (%), 6.25 mg/L): 0%; pest or weed control at 25 µg/mL (wheat powdery mildew; Triticum aestivum, 168 h, read-out: control effect against wheat powdery mildew (%), 25 mg/L): 0%; pest or weed control at 100 µg/mL (wheat powdery mildew; Triticum aestivum, 168 h, read-out: control effect against wheat powdery mildew (%), 100 mg/L): 0%
Cc1ncnc(NC(C)c2ccc(Oc3ncc(C(F)(F)F)cc3Cl)cc2)c1Cl (stereo not drawn) [CK27, reference compound] | – | – | – | – | – | – | – | 0 | 29 | 0 | 30 | 90 | 100 | 100 | 0 | 0 | 0 | pest or weed control at 10 µg/mL (carmine spider mite; Tetranychus cinnabarinus, 72 h, 10 mg/L, read-out: Insecticidal activity against carmine spider mite (% )): 18%; pest or weed control at 100 µg/mL (carmine spider mite; Tetranychus cinnabarinus, 72 h, 100 mg/L, read-out: Insecticidal activity against carmine spider mite (% )): 100%; pest or weed control at 600 µg/mL (carmine spider mite; Tetranychus cinnabarinus, 72 h, 600 mg/L, read-out: Insecticidal activity against carmine spider mite (% )): 100%; pest or weed control at 400 µg/mL (wheat powdery mildew; Triticum aestivum, 168 h, read-out: control effect against wheat powdery mildew (%), 400 mg/L): 80%; pest or weed control at 400 µg/mL (cucumber downy mildew; Cucumis sativus, 168 h, read-out: control effect against cucumber downy mildew (%), 400 mg/L): 100%
